Counter-ions that a name gives are not always drawn.
How the values were obtained:
mGluR5 receptor (human) = biological target: T1, mGluR5 receptor (human) (Homo sapiens, UniProt P41594); experiment: Functional Ca2+ influx assay in CHO-hmGluR5 cells (DHPG 10 μM, FLIPR); format: cell-based
T1 construct: host or cells: CHO
Method: V. Functional Ca^2+ Influx Assay
20,000 CHO-hmGluR5 cells/well (Euroscreen, Gosselies, Belgium) are pipetted into 96-well plates (BD Biosciences, Heidelberg, Germany, Ref. 356640, clear bottom, 96-well, poly-D-lysine) and incubated overnight in HBSS buffer (Gibco 14025-050) with the following additions: 10% FCS (GIBCO, 10270-106) and doxycycline (BD Biosciences Clontech 631311 600 ng/ml).
For the functional study the cells were charged with 2 μM of Fluo-4 and 0.01% by vol. pluronic F127 (Molecular Probes Europe BV, Leiden, The Netherlands) in HBSS buffer (Hank's buffered saline solution, Gibco Invitrogen GmbH, Karlsruhe, Germany) with probenicide (Sigma P8761, […]) for 30 min. at 37° C.
The cells are then washed 3 times with washing buffer (HBSS buffer, Gibco No. 14025-050), with probenicide (Sigma P8761, 0.69 mg/ml) and then taken up with the same buffer ad 100 μl. After 15 min. the plates for determining the Ca^2+ measurements in the presence of DHPG ((S)-3,5-dihydroxyphenylglycine, Tocris Biotrend Chemikalien GmbH, Cologne, Germany, final DHPG concentration: 10 μM) and also in the presence or absence of test substances are transferred into a fluorometric imaging plate reader (FLIPR, Molecular Devices, Sunnyvale, Calif.).
The Ca^2+-dependent fluorescence is measured before and after the addition of test substances. The quantification occurs through the measurement of the highest fluorescence intensity over time. After the fluorescence base line has been recorded for 10 sec. 50 μl of test substance solution (different test substance concentrations in HBSS buffer with 1% DMSO and 0.02% Tween 20, Sigma) are added and the fluorescence signal is measured for 6 min. 50 μl of DHPG solution ((S)-3,5-dihydroxyphenylglycine, Tocris Biotrend Chemikalien GmbH, Cologne, Germany, final DHPG concentration: 10 μM) are then added and the influx of Ca^2+ is measured simultaneously for 60 sec. The final DMSO concentration amounts to 0.25% and the final Tween 20 content amounts to 0.005%. The data are analysed with Microsoft Excel and GraphPad Prism. The dose effect curves are calculated with non-linear regression and IC50 values determined. Each data point is determined 3 times and IC50 values are averaged from a minimum of 2 independent measurements. Ki values are calculated according to the following formula:
Ki=IC50/(1+(AGconc./EC50)).
AGconc.=10 μM; EC50 corresponds to the DHPG concentration necessary for the half-maximum influx of Ca^2+.

mGluR5 receptor = biological target: T2, mGluR5 receptor (Sus scrofa, UniProt I3LUI7); experiment: [3H]-MPEP mGluR5 receptor binding assay (pig brain homogenate); conditions: 5 nM [3H]-MPEP; for IC50: read-out: IC50 mGluR5 Receptor (pig) [^3H]-MPEP Bond; for inhibition at 10 µM: 10 μM compound, read-out: % Inhibition of mGluR5 Receptor (pig) [^3H]-MPEP Bond at 10 μM
T2 construct: 450 μg of protein from brain homogenate with 5 nM ^3[H]-MPEP; from tissue; host or cells: pig brain halves without medulla, cerebellum and pons
Method in brief: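 Compounds at 10 μM competed with 5 nM [3H]-MPEP for binding to pig brain membranes (450 μg protein) for 60 min at room temperature in pH 8.0 Hepes buffer. Bound radioactivity was collected on glass-fibre filters and read by β-counting, with 10 μM unlabelled MPEP giving non-specific binding.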

T1 sequence (P41594 21-1212): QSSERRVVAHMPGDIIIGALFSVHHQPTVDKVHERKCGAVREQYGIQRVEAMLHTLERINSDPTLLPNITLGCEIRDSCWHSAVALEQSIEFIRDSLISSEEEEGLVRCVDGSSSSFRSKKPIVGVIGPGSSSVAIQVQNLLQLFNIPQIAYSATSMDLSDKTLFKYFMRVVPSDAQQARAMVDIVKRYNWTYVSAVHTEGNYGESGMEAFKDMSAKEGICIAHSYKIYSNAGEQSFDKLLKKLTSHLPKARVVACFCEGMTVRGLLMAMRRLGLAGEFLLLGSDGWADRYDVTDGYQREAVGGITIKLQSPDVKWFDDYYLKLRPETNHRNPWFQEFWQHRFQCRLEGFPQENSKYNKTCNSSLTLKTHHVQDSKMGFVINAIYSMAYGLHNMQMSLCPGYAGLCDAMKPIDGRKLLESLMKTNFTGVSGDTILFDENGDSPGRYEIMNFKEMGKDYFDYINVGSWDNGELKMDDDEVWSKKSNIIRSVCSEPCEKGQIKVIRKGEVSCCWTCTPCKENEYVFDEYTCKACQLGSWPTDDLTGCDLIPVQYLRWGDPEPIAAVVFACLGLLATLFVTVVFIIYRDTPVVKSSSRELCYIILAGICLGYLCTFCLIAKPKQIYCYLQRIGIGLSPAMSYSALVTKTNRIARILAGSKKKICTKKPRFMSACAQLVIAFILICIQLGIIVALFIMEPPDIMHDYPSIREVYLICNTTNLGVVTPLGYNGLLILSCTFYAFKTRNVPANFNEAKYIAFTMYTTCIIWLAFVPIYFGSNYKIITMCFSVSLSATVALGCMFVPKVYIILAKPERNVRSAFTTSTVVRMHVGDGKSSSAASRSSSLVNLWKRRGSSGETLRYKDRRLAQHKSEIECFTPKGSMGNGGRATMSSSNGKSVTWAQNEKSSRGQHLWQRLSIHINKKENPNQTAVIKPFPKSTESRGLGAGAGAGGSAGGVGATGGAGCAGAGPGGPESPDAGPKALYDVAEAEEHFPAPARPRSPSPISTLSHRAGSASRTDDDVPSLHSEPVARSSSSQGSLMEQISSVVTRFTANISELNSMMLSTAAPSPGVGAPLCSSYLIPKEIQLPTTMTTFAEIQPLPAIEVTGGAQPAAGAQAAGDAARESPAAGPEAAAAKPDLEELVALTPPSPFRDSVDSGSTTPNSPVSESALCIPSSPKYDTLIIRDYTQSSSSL
T2 sequence (I3LUI7 19-1212): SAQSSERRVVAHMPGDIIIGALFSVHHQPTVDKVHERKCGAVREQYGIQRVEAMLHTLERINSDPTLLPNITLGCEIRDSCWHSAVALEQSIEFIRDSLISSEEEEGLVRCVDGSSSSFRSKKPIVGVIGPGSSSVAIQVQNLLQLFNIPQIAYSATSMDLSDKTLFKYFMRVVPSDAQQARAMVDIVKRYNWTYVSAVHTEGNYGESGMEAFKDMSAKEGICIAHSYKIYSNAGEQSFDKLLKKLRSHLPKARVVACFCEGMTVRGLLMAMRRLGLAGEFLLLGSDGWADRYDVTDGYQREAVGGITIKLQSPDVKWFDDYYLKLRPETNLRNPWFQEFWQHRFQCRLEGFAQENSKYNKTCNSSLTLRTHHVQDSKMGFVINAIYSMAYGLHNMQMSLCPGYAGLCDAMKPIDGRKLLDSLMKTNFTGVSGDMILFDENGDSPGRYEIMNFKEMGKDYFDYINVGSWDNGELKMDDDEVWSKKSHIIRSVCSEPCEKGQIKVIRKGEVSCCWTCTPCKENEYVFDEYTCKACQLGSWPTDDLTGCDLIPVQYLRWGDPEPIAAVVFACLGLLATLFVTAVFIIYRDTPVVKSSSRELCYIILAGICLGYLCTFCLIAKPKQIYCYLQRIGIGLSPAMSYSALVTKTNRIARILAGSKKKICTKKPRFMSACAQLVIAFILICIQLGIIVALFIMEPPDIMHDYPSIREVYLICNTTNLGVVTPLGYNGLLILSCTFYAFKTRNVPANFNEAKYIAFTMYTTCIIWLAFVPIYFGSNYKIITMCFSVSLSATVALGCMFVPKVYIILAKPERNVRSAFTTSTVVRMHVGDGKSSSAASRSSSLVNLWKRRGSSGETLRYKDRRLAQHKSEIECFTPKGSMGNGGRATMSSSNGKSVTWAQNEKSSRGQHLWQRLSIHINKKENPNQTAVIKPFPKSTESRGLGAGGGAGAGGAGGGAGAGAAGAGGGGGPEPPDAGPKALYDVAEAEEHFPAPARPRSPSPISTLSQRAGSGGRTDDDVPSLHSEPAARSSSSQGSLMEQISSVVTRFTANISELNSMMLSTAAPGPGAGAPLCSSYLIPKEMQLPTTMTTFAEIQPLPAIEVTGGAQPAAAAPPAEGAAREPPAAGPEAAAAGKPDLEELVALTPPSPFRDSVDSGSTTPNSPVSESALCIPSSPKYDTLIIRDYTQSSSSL

Structure (SMILES) | Ki (mGluR5 receptor (human)) [nM] | IC50 (mGluR5 receptor) [nM] | inhibition at 10 µM (mGluR5 receptor) [%]
O=C(c1ccccc1)N(Cc1cccc(-c2ccc3ncnc(N4CCCC4)c3c2)c1)C1CC1 [Example 121, N-cyclopropyl-N-[3-(4-pyrrolidin-1-yl-quinazolin-6-yl)-benzyl]-benzamide] | 7.5 |  | 
CC(C)(C)Nc1ncnc2ccc(-c3cccc(CN4C(=O)CCC4=O)c3)cc12 [Example 196, 1-[3-(4-tert-butylamino-quinazolin-6-yl)-benzyl]-pyrrolidine-2,5-dione hydrochloride] | 4.7 | 90 | 
CC(=O)N(Cc1cccc(-c2ccc3ncnc(NC4CC4)c3c2)c1)C(C)(C)C [Example 202, N-tert-butyl-N-[3-(4-cyclopropylamino-quinazolin-6-yl)-benzyl]-acetamide] | 3.3 |  | 55
N#CCC(=O)N(Cc1cccc(-c2ccc3ncnc(NC4CC4)c3c2)c1)C1CC1 [Example 211, 2-cyano-N-cyclopropyl-N-[3-(4-cyclopropylamino-quinazolin-6-yl)-benzyl]-acetamide] | 8.4 | 70 | 
CC1CC(=O)N(Cc2cccc(-c3ccc4ncnc(NC5CC5)c4c3)c2)C1=O (stereo not drawn) [Example 245, 1-[3-(4-cyclopropylamino-quinazolin-6-yl)-benzyl]-3-methyl-pyrrolidine-2,5-dione] | 5.2 | 140 | 
COc1ccc(CN(C2CC2)S(C)(=O)=O)cc1-c1ccc2ncnc(NC3CC3)c2c1 [Example 250, N-cyclopropyl-N-(3-(4-(cyclopropylamino)quinazolin-6-yl)-4-methoxybenzyl)methane sulfonamide] | 5 | 120 | 
O=C1CCC(=O)N1Cc1cccc(-c2ccc3ncnc(NC4CC4)c3c2)c1 [Example 258, 1-[3-(4-cyclopropylamino-quinazolin-6-yl)-benzyl]-pyrrolidine-2,5-dione] | 3.9 | 50 | 
COc1ccc(CN(C(C)=O)C2CC2)cc1-c1ccc2ncnc(NC3CC3)c2c1 [Example 261, N-cyclopropyl-N-[3-(4-cyclopropylamino-quinazolin-6-yl)-4-methoxy-benzyl]-acetamide] | 39 | 200 | 
CC(=O)N(Cc1cc(-c2ccc3ncnc(NC4CC4)c3c2)cs1)C1CC1 [Example 262, N-cyclopropyl-N-[4-(4-cyclopropylamino-quinazolin-6-yl)-thiophen-2-ylmethyl]-acetamide] | 5.9 | 110 | 
O=C(c1ccccc1)N(Cc1cc(-c2ccc3ncnc(NC4CC4)c3c2)ccc1F)C1CC1 [Example 269, N-cyclopropyl-N-(5-(4-(cyclopropylamino)quinazolin-6-yl)-2-fluorobenzyl)benzamide] | 8 | 280 | 
CS(=O)(=O)N(Cc1cccc(-c2ccc3ncnc(NC4CC4)c3c2)c1)C1CC1 [Example 270, N-cyclopropyl-N-(3-(4-(cyclopropylamino)quinazolin-6-yl)benzyl)methane sulfonamide] | 12 | 280 | 
CC(=O)N(Cc1cccc(-c2ccc3ncnc(NC4CC4)c3c2)c1)C1CC1 [Example 271, N-cyclopropyl-N-(3-(4-(cyclopropylamino)quinazolin-6-yl)benzyl)acetamide] | 8.2 | 140 | 
O=C(N(Cc1cccc(-c2ccc3ncnc(NC4CC4)c3c2)c1)C1CC1)C(F)(F)F [Example 273, N-cyclopropyl-N-(3-(4-(cyclopropylamino)quinazolin-6-yl)benzyl)-2,2,2-trifluoroacetamide] | 1.7 | 30 | 
CCOC(=O)N(Cc1cccc(-c2ccc3ncnc(NC4CC4)c3c2)c1)C1CC1 [Example 875, ethyl cyclopropyl(3-(4-(cyclopropylamino)quinazolin-6-yl)benzyl)carbamate] | 51.1 | 40 | 
O=C1CCC(=O)N1Cc1cccc(-c2cc3c(NC4CC4)ncnc3cc2F)c1 [Example 882, 1-(3-(4-(cyclopropylamino)-7-fluoroquinazolin-6-yl)benzyl)pyrrolidine-2,5-dione] | 2.7 | 70 | 
O=C1CCC(=O)N1Cc1cc(F)cc(-c2ccc3ncnc(NC4CC4)c3c2)c1 [Example 889, 1-(3-(4-(cyclopropylamino)quinazolin-6-yl)-5-fluorobenzyl)pyrrolidine-2,5-dione] |  | 500 | 

Structure (SMILES) | Ki (mGluR5 receptor (human)) [nM] | IC50 (mGluR5 receptor) [nM] | inhibition at 10 µM (mGluR5 receptor) [%]
CC(=O)N(Cc1cccc(-c2ccc3ncnc(NC4CC4)c3c2)n1)C1CC1 [Example 890, N-cyclopropyl-N-((6-(4-(cyclopropylamino)quinazolin-6-yl)pyridin-2-yl)methyl)acetamide] |  | 4620 | 
CN(Cc1cccc(-c2ccc3ncnc(NC4CC4)c3c2)c1)C1CC1 [Example 891, N-cyclopropyl-6-(3-((cyclopropyl(methyl)amino)methyl)phenyl)quinazoline-4-amine] |  | 5600 | 
c1cc(CN(c2nccs2)C2CC2)cc(-c2ccc3ncnc(NC4CC4)c3c2)c1 [Example 892, N-cyclopropyl-N-(3-(4-(cyclopropylamino)quinazolin-6-yl)benzyl)thiazole-2-amine] |  | 80 | 
CC(=O)N(Cc1cccc(-c2ccc3ncnc(NC4CC4)c3c2)c1)C1CCC1 [Example 893, N-cyclobutyl-N-(3-(4-(cyclopropylamino)quinazolin-6-yl)benzyl)acetamide] |  | 3210 | 
CCN(Cc1cccc(-c2ccc3ncnc(NC4CC4)c3c2)c1)C(C)=O [Example 894, N-(3-(4-(cyclopropylamino)quinazolin-6-yl)benzyl)-N-ethylacetamide] |  | 1000 | 
O=C1CCC(=O)N1Cc1ccc(F)c(-c2ccc3ncnc(NC4CC4)c3c2)c1 [Example 895, 1-(3-(4-(cyclopropylamino)quinazolin-6-yl)-4-fluorobenzyl)pyrrolidine-2,5-dione] |  |  | 72
CC(=O)N(Cc1ccc(F)c(-c2ccc3ncnc(NC4CC4)c3c2)c1)C1CC1 [Example 896, N-cyclopropyl-N-(3-(4-(cyclopropylamino)quinazolin-6-yl)-4-fluorobenzyl)acetamide] |  |  | 78
CC(=O)N(Cc1cc(F)cc(-c2ccc3ncnc(NC4CC4)c3c2)c1)C1CC1 [Example 897, N-cyclopropyl-N-(3-(4-(cyclopropylamino)quinazolin-6-yl)-5-fluorobenzyl)acetamide] |  | 20 | 
COC(=O)N(Cc1cccc(-c2ccc3ncnc(NC4CC4)c3c2)c1)C1CC1 [Example 898, methyl cyclopropyl(3-(4-(cyclopropylamino)quinazolin-6-yl)benzyl)carbamate] |  | 90 | 
COc1cc2ncnc(NC3CC3)c2cc1-c1cccc(CN2C(=O)CCC2=O)c1 [Example 899, 1-(3-(4-(cyclopropylamino)-7-methoxyquinazolin-6-yl)benzyl)pyrrolidine-2,5-dione] |  | 160 | 
N#CCC(=O)N(Cc1ccc(F)c(-c2ccc3ncnc(NC4CC4)c3c2)c1)C1CC1 [Example 900, 2-cyano-N-cyclopropyl-N-(3-(4-(cyclopropylamino)quinazolin-6-yl)-4-fluorobenzyl)acetamide] |  |  | 81
CN(c1ncnc2ccc(-c3cccc(CN4C(=O)CCC4=O)c3)cc12)C1CC1 [Example 901, 1-(3-(4-(cyclopropyl(methyl)amino)quinazolin-6-yl)benzyl)pyrrolidine-2,5-dione] |  |  | 40
N#CCC(=O)N(Cc1cc(F)cc(-c2ccc3ncnc(NC4CC4)c3c2)c1)C1CC1 [Example 902, 2-cyano-N-cyclopropyl-N-(3-(4-(cyclopropylamino)quinazolin-6-yl)-5-fluorobenzyl)acetamide] |  |  | 92
CC(=O)N(Cc1nc(-c2ccc3ncnc(NC4CC4)c3c2)cs1)C1CC1 [Example 903, N-cyclopropyl-N-((4-(4-(cyclopropylamino)quinazolin-6-yl)thiazole-2-yl)methyl)acetamide] |  |  | 87
O=C1CCC(=O)N1Cc1cccc(-c2ccc3ncnc(NC4CC4)c3c2F)c1 [Example 904, 1-(3-(4-(cyclopropylamino)-5-fluoroquinazolin-6-yl)benzyl)pyrrolidine-2,5-dione] |  | 220 | 

— US20090069320A1, “Substituted 4-Amino-Quinazoline Compounds with Metabotropic Glutamate Receptor Regulating Activity and Uses Thereof” (Gruenenthal GmbH, priority 2006, published 2009)
